Measurements published in patent US20010011128A1, “Hex II tumor-specific promoter and uses thereof” (priority 1996, published 2001).

Assays:
[1] = MTT cell viability assay, pΔE1sp1B Hex TK transfectants treated with gancyclovir; format: cell-based; details: GCV 10 or 25 ug/ml, controls GCV alone or plasmid only
Description: Cells in the logarithmic phase of growth were resuspended at a concentration of 2×10^5 cells/ml. 2 ml/well were plated in 6-well plates. Plates were incubated for 24 h at 37° C. in 5% CO2. Subsequently, cells were transfected with the pΔE1sp1B Hex TK plasmid as described above. […] Each condition was done in triplicate. Cells survival was calculated in the treated population as a percentage of controls. Controls are cells transfected with the plasmid alone or treated with the drug alone. MTT assays was performed two days following treatment. The formazan crystals were dissolved in […] (Fisher) and glycine buffer (0.1 M glycine-0.1 M NaCl, pH 10.5). The formazan product formed by viable cells was quantitated by measuring the absorbance at a wavelength of 570 nm.

[2] = system: H661 non-small cell lung carcinoma cells; experiment: CAT reporter gene assay, Hex II promoter activation (first series); format: cell-based, human; details: treatment of the transfectants
Description: Transient transfections were performed using lipofectamine according to the manufacturer's recommendations (GIBCO-BRL). Cells were plated the day before transfection to give 60% confluency in 6-well plates. The p1583/+33MUC1.CAT or pHex4557.CAT vectors were transfected along with pSV2lacZ to determine promoter activity. 1 ug of each plasmid were used for each well. All conditions assayed were done in duplicate. The plasmids pRSV.CAT and promoterless pCAT were used as positive and negative controls, respectively. Cells extracts were prepared 48 hours after transfection and β-galactosidase activity was assayed to compensate for variations in transfection efficiency. CAT activity was determined from 75-100 ug of proteins. The reaction was carried out with 0.1 uCi of ^14C-labeled chloramphenicol in a 100 ul reaction at 37° C. for 4 hrs.

[3] = system: HK II promoter in NCI-H661 cells; experiment: Regulation of HK II promoter (pHexII4557 CAT) by glucose, insulin, glucagon; format: cell-based, human; details: NCI-H661 transfected with pHexII4557 CAT; 25 mM glucose, 100 nM insulin, 10 μM glucagon
Description: Transient transfections were performed using Lipofect AMINE (Canadian Life Technologies. Burlington, ON, Canada). Seventy to 80% confluent cells were transfected with 1 μg of the reporter plasmid pCAT, pMUCI-1583 CAT, pHexII4557 CAT, or pRSV CAT (Rous sarcoma virus long terminal repeat promoter) (ATCC). One microgram of pSV2-Pgalactosidase (Promega) was cotransfected as an internal control for variations in transfection efficiency in serum-free Dulbecco's modified Eagle's medium (DMEM). The medium was replaced with fresh growth medium after 6 hr. In promoter regulation experiments, the cells were transfected in RPMI 1640 glucose-deficient medium. Six hours after transfection, the medium was replaced with RPMI 1640 glucose-deficient medium supplemented with 100 nM bovine insulin. 25 mM glucose, or 10 μM glucagon (Sigma Aldrich Canada. Oakville. ON, Canada) or a combination of insulin and glucose, supplemented with 1 mM sodium pyruvate and 100 μM glucose. […] The protein concentration of the extracts was measured using the Bradford protein assay from Bio-Rad (Mississauga, ON. Canada) and equal amounts were assayed in the chloramphenicol acetyltransferase (CAT) and β-galactosidase assays, which were carried out as described by the manufacturer (Promega). Percent acetylation was measured using the Bio-Rad Gelscan Phos-phoimager and the Molecular Analyst software program. […]

HK II mRNA in NHBECs = experiment: Ribonuclease protection assay of HK II mRNA; format: cell-based, human; details: 25 mM glucose, 100 nM insulin, 10 μM glucagon, 12 hr
Description: For regulation studies, cells were grown to subconfluence in 75-cm^2 flasks, starved in serum-free, glucose-deficient RPMI 1640 medium (Canadian Life Technologies) for 18 hr, and induced in 25 mM glucose, 100 nM insulin, and 10 μM glucagon (Sigma Aldrich Canada) for 12 hr. RNA was extracted from cells using RNAzol (Tel-Test, Friendswood, Tex.) as described by the manufacturer. Contaminating DNA was digested with 5-10 units of DNase I (Pharmacia Biotech) in 10 mM MgCl2, 1 mM dithiothreitol (DTT), […] of RNA Guard (Pharmacia Biotech), 50-80 μl of total RNA at 1 μg/μl for 30 min at 37° C., followed by precipitation of total RNA.
The HK II probe (0.1 fmol) and the human β-actin probe (2 fmol) were simultaneously hybridized to 30 μg of total RNA using the RPA II kit (Ambion, Austin, Tex.) according to the manufacturer recommendations. Probes were prepared by in vitro transcription using the MAXIscript kit (Ambion) and [α-^32P]UTP (6000 Ci/mmol, 40 mCi/ml). HK II (nucleotides 1500 to 1803 of HK II cDNA; GenBank Z-16376) was inserted in the pDP18-T7/T3 vector (Ambion). The template was cut with KpnI at the 5′ end of the insert and transcribed toward that site from the T7 promoter to produce a 430-bp transcript. The HK II-protected fragment is 303 bp. […] Quantitation was performed using the NIH Image 1.67b densitometry software.

| Compound | cell survival less than control cells [1] | effect on Hex II promoter activation [2] | HK II promoter activation, increase over basal [3] | HK II mRNA level relative to basal (HK II mRNA in NHBECs) |
| --- | --- | --- | --- | --- |
| Nc1nc(O)c2ncn(COC(CO)CO)c2n1 [GCV, gancyclovir] | 50% | – | – | – |
| glucagon: regulator of glucose metabolism, physiological inhibitor of Hex II | – | did not inhibit promoter activation | did not lead to significant differences | repressed HK II expression |
| insulin: bovine insulin, regulator of glucose metabolism | – | – | did not lead to significant differences | – |
